Data: patent US9771379B2, “N-(2-(2-amino-6-substituted-4,4a,5,6-tetrahydropyrano[3,4-d][1,3]OXAZIN-8a(8H)-yl)-thiazol-4-yl) amides” (Pfizer Inc., priority 2015, dated 2017)

Biological target: BACE1 enzyme (Homo sapiens (Human), UniProt P56817)
Test: BACE1 Cell-Free Assay
Type: biochemical
Conditions: for IC50: fluorescence polarization, synthetic APP substrate, pH 4.5; for biological activity: stated in words, used to assign absolute stereochemistry
Excerpt: This assay measures the inhibition of the beta-secretase enzyme as it cleaves a non-native peptide.
A synthetic APP substrate that can be cleaved by beta-secretase having N-terminal biotin and made fluorescent by the covalent attachment of Oregon Green at the Cys residue is used to assay beta-secretase activity in the presence or absence of the inhibitory compounds. […] The BACE1 enzyme is affinity purified material from conditioned media of CHO-K1 cells that have been transfected with a soluble BACE construct (BACE1delta™96His). […] Plates are covered and incubated for 3 hours at 37° C. […] The activity of the beta-secretase enzyme is detected by changes in the fluorescence polarization that occur when the substrate is cleaved by the enzyme.

Chain of BACE1 enzyme (P56817 46-457): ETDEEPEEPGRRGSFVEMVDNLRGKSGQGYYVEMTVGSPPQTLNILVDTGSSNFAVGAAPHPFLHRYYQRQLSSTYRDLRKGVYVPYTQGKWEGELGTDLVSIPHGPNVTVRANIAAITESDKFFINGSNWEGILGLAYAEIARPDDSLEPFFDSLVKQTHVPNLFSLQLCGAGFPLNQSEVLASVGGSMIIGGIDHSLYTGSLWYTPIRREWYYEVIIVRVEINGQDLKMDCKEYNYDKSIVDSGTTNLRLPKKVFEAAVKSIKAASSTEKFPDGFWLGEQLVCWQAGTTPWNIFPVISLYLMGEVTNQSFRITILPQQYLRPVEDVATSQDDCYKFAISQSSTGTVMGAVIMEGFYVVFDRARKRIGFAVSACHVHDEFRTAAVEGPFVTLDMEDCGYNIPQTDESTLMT

IC50	biological activity	Structure (SMILES)
214 nM	–	C[C@H]1C[C@H]2COC(N)=N[C@@]2(c2nc(NC(=O)c3ccc(OC(F)F)cn3)cs2)CO1 [Example 1, N-(2-((4aR,6S,8aR)-2-amino-6-methyl-4,4a,5,6-tetrahydropyrano[3,4-d][1,3]oxazin-8a(8H)-yl)thiazol-4-yl)-5-(difluoromethoxy)picolinamide]
123 nM	–	C[C@H]1C[C@H]2COC(N)=N[C@@]2(c2nc(NC(=O)c3ncc(OC(F)F)cc3Cl)cs2)CO1 [Example 2, N-(2-((4aR,6S,8aR)-2-amino-6-methyl-4,4a,5,6-tetrahydropyrano[3,4-d][1,3]oxazin-8a(8H)-yl)thiazol-4-yl)-3-chloro-5-(difluoromethoxy)picolinamide]
85 nM	–	Cc1cc(OC(F)F)cnc1C(=O)Nc1csc([C@]23CO[C@@H](C)C[C@H]2COC(N)=N3)n1 [Example 3, N-(2-((4aR,6S,8aR)-2-amino-6-methyl-4,4a,5,6-tetrahydropyrano[3,4-d][1,3]oxazin-8a(8H)-yl)thiazol-4-yl)-5-(difluoromethoxy)-3-methylpicolinamide]
146 nM	–	C[C@H]1C[C@H]2CCOC(N)=N[C@@]2(c2nc(NC(=O)c3ccc(OC(F)F)cn3)cs2)CO1 [Example 4, N-(2-((5aR,7S,9aR)-2-amino-7-methyl-5,5a,6,7-tetrahydro-4H-pyrano[3,4-d][1,3]oxazepin-9a(9H)-yl)thiazol-4-yl)-5-(difluoromethoxy)picolinamide]
71 nM	–	Cc1cc(OC(F)F)cnc1C(=O)Nc1csc([C@]23CO[C@@H](C)C[C@H]2CCOC(N)=N3)n1 [Example 5, N-(2-((5aR,7S,9aR)-2-amino-7-methyl-5,5a,6,7-tetrahydro-4H-pyrano[3,4-d][1,3]oxazepin-9a(9H)-yl)thiazol-4-yl)-5-(difluoromethoxy)-3-methylpicolinamide]
270 nM	–	C[C@H]1C[C@H]2[C@@H](CF)OC(N)=N[C@@]2(c2nc(NC(=O)c3ccc(OC(F)F)cn3)cs2)CO1 [Example 6, N-(2-((4S,4aR,6S,8aR)-2-amino-4-(fluoromethyl)-6-methyl-4,4a,5,6-tetrahydropyrano[3,4-d][1,3]oxazin-8a(8H)-yl)thiazol-4-yl)-5-(difluoromethoxy)picolinamide]
112 nM	–	C[C@H]1C[C@H]2[C@@H](C(F)(F)F)OC(N)=N[C@@]2(c2nc(NC(=O)c3ccc(OC(F)F)cn3)cs2)CO1 [Example 7, N-(2-((4S,4aR,6S,8aR)-2-amino-6-methyl-4-(trifluoromethyl)-4,4a,5,6-tetrahydropyrano[3,4-d][1,3]oxazin-8a(8H)-yl)thiazol-4-yl)-5-(difluoromethoxy)picolinamide]
610 nM	–	CC1(C)C[C@H]2COC(N)=N[C@@]2(c2nc(NC(=O)c3ccc(OC(F)F)cn3)cs2)CO1 [Example 8, N-(2-((4aR,8aR)-2-Amino-6,6-dimethyl-4,4a,5,6-tetrahydropyrano[3,4-d][1,3]oxazin-8a(8H)-yl)thiazol-4-yl)-5-(difluoromethoxy)picolinamide]
475 nM	–	Cc1cc(OC(F)F)cnc1C(=O)Nc1csc([C@]23COC(C)(C)C[C@H]2COC(N)=N3)n1 [Example 9, N-(2-((4aR,8aR)-2-amino-6,6-dimethyl-4,4a,5,6-tetrahydropyrano[3,4-d][1,3]oxazin-8a(8H)-yl)thiazol-4-yl)-5-(difluoromethoxy)-3-methylpicolinamide]
310 nM	active	NC1=N[C@@]2(c3nc(NC(=O)c4ccc(Cl)cn4)cs3)CO[C@@H](C(F)(F)F)C[C@H]2CO1 [Example 10a, N-(2-((4aR,6R,8aR)-2-amino-6-(trifluoromethyl)-4,4a,5,6-tetrahydropyrano[3,4-d][1,3]oxazin-8a(8H)-yl)thiazol-4-yl)-5-chloropicolinamide]
16700 nM	inactive	NC1=N[C@]2(c3nc(NC(=O)c4ccc(Cl)cn4)cs3)CO[C@H](C(F)(F)F)C[C@@H]2CO1 [Example 10b, N-(2-((4aS,6S,8aS)-2-amino-6-(trifluoromethyl)-4,4a,5,6-tetrahydropyrano[3,4-d][1,3]oxazin-8a(8H)-yl)thiazol-4-yl)-5-chloropicolinamide]
155 nM	–	Cc1cc(OC(F)F)cnc1C(=O)Nc1csc([C@]23CO[C@@H](C(F)(F)F)C[C@H]2COC(N)=N3)n1 [Example 11a, N-(2-((4aR,6R,8aR)-2-amino-6-(trifluoromethyl)-4,4a,5,6-tetrahydropyrano[3,4-d][1,3]oxazin-8a(8H)-yl)thiazol-4-yl)-5-(difluoromethoxy)-3-methylpicolinamide]
10800 nM	–	Cc1cc(OC(F)F)cnc1C(=O)Nc1csc([C@@]23CO[C@H](C(F)(F)F)C[C@@H]2COC(N)=N3)n1 [Example 11b, N-(2-((4aS,6S,8aS)-2-amino-6-(trifluoromethyl)-4,4a,5,6-tetrahydropyrano[3,4-d][1,3]oxazin-8a(8H)-yl)thiazol-4-yl)-5-(difluoromethoxy)-3-methylpicolinamide]
371 nM	–	NC1=N[C@@]2(c3nc(NC(=O)c4ccc(OC(F)F)cn4)cs3)CO[C@@H](C(F)(F)F)C[C@H]2CO1 [Example 12a, N-(2-((4aR,6R,8aR)-2-amino-6-(trifluoromethyl)-4,4a,5,6-tetrahydropyrano[3,4-d][1,3]oxazin-8a(8H)-yl)thiazol-4-yl)-5-(difluoromethoxy)picolinamide]
15000 nM	–	NC1=N[C@]2(c3nc(NC(=O)c4ccc(OC(F)F)cn4)cs3)CO[C@H](C(F)(F)F)C[C@@H]2CO1 [Example 12b, N-(2-((4aS,6S,8aS)-2-amino-6-(trifluoromethyl)-4,4a,5,6-tetrahydropyrano[3,4-d][1,3]oxazin-8a(8H)-yl)thiazol-4-yl)-5-(difluoromethoxy)picolinamide]
184 nM	active	NC1=N[C@@]2(c3nc(NC(=O)c4ncc(OC(F)F)cc4Cl)cs3)CO[C@@H](C(F)(F)F)C[C@H]2CO1 [Example 13a, N-(2-((4aR,6R,8aR)-2-amino-6-(trifluoromethyl)-4,4a,5,6-tetrahydropyrano[3,4-d][1,3]oxazin-8a(8H)-yl)thiazol-4-yl)-3-chloro-5-(difluoromethoxy)picolinamide]
6970 nM	inactive	NC1=N[C@]2(c3nc(NC(=O)c4ncc(OC(F)F)cc4Cl)cs3)CO[C@H](C(F)(F)F)C[C@@H]2CO1 [Example 13b, N-(2-((4aS,6S,8aS)-2-amino-6-(trifluoromethyl)-4,4a,5,6-tetrahydropyrano[3,4-d][1,3]oxazin-8a(8H)-yl)thiazol-4-yl)-3-chloro-5-(difluoromethoxy)picolinamide]
370 nM	–	Cc1cc(OC(F)F)cnc1C(=O)Nc1csc([C@]23COC4(CCC4)C[C@H]2COC(N)=N3)n1 [Example 15, N-(2-((4a′R,8a′R)-2′-amino-4a′,5′-dihydro-4′H-spiro[cyclobutane-1,6′-pyrano[3,4-d][1,3]oxazin]-8a′(8′H)-yl)thiazol-4-yl)-5-(difluoromethoxy)-3-methyl picolinamide]
395 nM	–	N#Cc1ccc(C(=O)Nc2csc([C@]34COC5(CCC5)C[C@H]3COC(N)=N4)n2)nc1 [Example 16, N-(2-((4a′R,8a′R)-2′-amino-4a′,5′-dihydro-4′H-spiro [cyclobutane-1,6′-pyrano [3,4-d][1,3]oxazin]-8a′(8′H)-yl)thiazol-4-yl)-5-cyano picolinamide]
